This is an account of results in patent publication US20240425491A1, “HETEROARYL COMPOUNDS USEFUL IN THE TREATMENT OF COGNITIVE DISORDERS” (University College Cardiff Consultants Limited, priority 2021, published 2024).

The Ki is a dissociation constant, usually derived from enzyme kinetics or from competition with a known ligand.

In assay [1] the target is T1, human recombinant GABAAR containing α5β3γ2 subunits (benzodiazepine site) (Homo sapiens, UniProt P18507+P31644).
T1 construct: expressed in transfected cells; host or cells: mouse L(tk−) cells, dexamethasone-inducible vector pMSGneo
Briefly: In vitro radioligand binding assay (α5-GABAAR Ki). Particulars: inhibition of [3H]Ro15-1788 binding, membranes of L(tk−) cells expressing human α5β3γ2; read-out: α5-GABAAR Ki. Summed up: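 Displacement of 4 nM [^3H]flumazenil from the benzodiazepine site, read by filtration and scintillation, gave IC50, converted to Ki (Cheng-Prusoff, saturation-derived Kd). Receptor: human α5β3γ2 membranes from L(tk^−) cells, 50 μg protein/well; 1 h, 4° C; TP003 1 μM defined nonspecific binding.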

The target of assay [2] is T2, human α5β3γ2 GABAARs in mouse L(tk−) cells (Homo sapiens, UniProt P18507+P31644).
T2 construct: expressed in transfected cells; host or cells: mouse L(tk−) cells, dexamethasone-inducible vector pMSGneo
As to the kind of experiment: In vitro electrophysiological recording assay (α5-GABAAR relative efficacy), QPatch. It counts as cell-based. The note with it: GABA EC10-20. Summed up: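 Whole-cell QPatch recordings at 20-22° C, −65 mV holding, in dexamethasone-induced (1 μM, 24 h) L(tk−) cells. Compound pre-applied ≥1 min, then co-applied with GABA EC10-20; percentage change in leak-corrected peak current, taken at ≥100× Ki, normalised to DMCM efficacy; 0.1% DMSO final.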
(In general: Patch clamp records ionic current or voltage across a cell membrane.)

T1 sequence (P31644 32-462): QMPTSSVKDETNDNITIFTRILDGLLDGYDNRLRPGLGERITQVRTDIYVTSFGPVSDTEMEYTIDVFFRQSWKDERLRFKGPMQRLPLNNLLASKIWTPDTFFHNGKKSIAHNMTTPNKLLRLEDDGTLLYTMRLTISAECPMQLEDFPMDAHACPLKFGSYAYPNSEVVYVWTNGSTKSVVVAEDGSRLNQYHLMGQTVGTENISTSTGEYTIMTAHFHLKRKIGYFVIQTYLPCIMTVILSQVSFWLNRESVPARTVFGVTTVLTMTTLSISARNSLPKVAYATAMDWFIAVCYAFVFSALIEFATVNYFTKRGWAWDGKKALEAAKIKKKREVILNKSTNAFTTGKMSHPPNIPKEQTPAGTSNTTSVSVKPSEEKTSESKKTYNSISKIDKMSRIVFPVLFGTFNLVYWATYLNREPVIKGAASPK
T1 sequence (P28472 26-473 partner): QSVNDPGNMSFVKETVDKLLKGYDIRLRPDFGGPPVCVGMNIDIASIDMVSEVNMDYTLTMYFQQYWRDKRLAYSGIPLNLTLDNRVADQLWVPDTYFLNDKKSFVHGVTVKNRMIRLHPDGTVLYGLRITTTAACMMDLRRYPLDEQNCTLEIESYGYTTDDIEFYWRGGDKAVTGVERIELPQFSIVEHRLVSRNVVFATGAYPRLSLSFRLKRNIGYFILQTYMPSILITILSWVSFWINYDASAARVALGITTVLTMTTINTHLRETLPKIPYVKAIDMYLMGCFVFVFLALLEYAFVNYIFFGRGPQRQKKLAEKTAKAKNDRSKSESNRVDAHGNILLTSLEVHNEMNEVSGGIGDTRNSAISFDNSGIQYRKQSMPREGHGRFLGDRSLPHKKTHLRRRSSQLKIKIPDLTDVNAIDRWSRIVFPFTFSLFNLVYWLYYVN
T1 sequence (P18507 40-475): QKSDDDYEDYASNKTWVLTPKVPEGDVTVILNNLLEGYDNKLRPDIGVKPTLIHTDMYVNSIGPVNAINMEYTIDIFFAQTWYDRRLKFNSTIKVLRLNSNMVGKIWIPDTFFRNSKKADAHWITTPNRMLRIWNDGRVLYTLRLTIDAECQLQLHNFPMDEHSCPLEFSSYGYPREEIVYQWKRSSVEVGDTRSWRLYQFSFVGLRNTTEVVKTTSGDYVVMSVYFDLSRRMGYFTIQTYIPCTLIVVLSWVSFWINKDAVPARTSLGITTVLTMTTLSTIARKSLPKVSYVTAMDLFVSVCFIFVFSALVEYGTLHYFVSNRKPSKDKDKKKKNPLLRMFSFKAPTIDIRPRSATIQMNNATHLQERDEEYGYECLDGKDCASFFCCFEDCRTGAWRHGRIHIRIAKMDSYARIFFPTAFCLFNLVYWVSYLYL
T2 sequence (P31644 32-462): as the sequence (P31644 32-462) above
T2 sequence (P28472 26-473 partner): as the sequence (P28472 26-473 partner) above
T2 sequence (P18507 40-475): as the sequence (P18507 40-475) above

On to `CCn1nc(-c2nccs2)cc1-c1ccc(NC(=O)c2c(-c3ccccc3)noc2C)c(OC)n1` [Example 80, N-(6-(1-Ethyl-3-(thiazol-2-yl)-1H-pyrazol-5-yl)-2-methoxypyridin-3-yl)-5-methyl-3-phenylisoxazole-4-carboxamide], for which the inhibitory constant (Ki) in assay [1] came to 19.5 nM. The “α5-GABAAR Relative Efficacy (to DMCM), Qpatch” value (“α5-GABAAR Relative Efficacy” for short) in assay [2] (Conc 3 μM) is reported as −0.65.
As to `COc1nc(-c2cc(C)nc(N)c2)ccc1NC(=O)c1c(-c2ccccc2)noc1C` [Example 81, N-(2′-Amino-6-methoxy-6′-methyl-[2,4′-bipyridin]-5-yl)-5-methyl-3-phenylisoxazole-4-carboxamide], the inhibitory constant (Ki) in assay [1] turned out to be 8 nM. In addition, the “α5-GABAAR Relative Efficacy” value in assay [2] (Conc 1 μM) is recorded as −1.26.
On the same counts, the results for `COc1nc(-c2ccnc(N(C)C)c2)ccc1NC(=O)c1c(-c2ccccc2)noc1C` [Example 82, N-(2′-(Dimethylamino)-6-methoxy-[2,4′-bipyridin]-5-yl)-5-methyl-3-phenyl-isoxazole-4-carboxamide] are 7.9 nM and −0.65.
Consider `COc1nc(-c2cnn(C3CCCCO3)n2)ccc1NC(=O)c1c(-c2ccccc2)noc1C` (stereo not drawn) [Example 84, N-(2-Methoxy-6-(2-(tetrahydro-2H-pyran-2-yl)-2H-1,2,3-triazol-4-yl)pyridin-3-yl)-5-methyl-3-phenylisoxazole-4-carboxamide], for which, in assay [1], the Ki is 10.7 nM. Besides, in assay [2] (Conc 3 μM), the “α5-GABAAR Relative Efficacy” value is on record as −0.51.
Consider `COc1nc(-c2ccncc2N)ccc1NC(=O)c1c(-c2ccccc2)noc1C` [Example 86, N-(3′-Amino-6-methoxy-[2,4′-bipyridin]-5-yl)-5-methyl-3-phenylisoxazole-4-carboxamide], for which the Ki in assay [1] came to 3.2 nM. Moreover, the “α5-GABAAR Relative Efficacy” value in assay [2] (Conc 1 μM) is recorded as −0.65.
As for `COc1nc(-c2cncc(-n3cccn3)c2)ccc1NC(=O)c1c(-c2ccccc2)noc1C` [Example 90, N-(6-Methoxy-5′-(1H-pyrazol-1-yl)-[2,3′-bipyridin]-5-yl)-5-methyl-3-phenylisoxazole-4-carboxamide], the Ki in assay [1] came to 3.4 nM. For the same molecule, the “α5-GABAAR Relative Efficacy” value in assay [2] (Conc 1 μM) is −0.58.
As for `COc1nc(-c2ccc3nnn(C)c3c2)ccc1NC(=O)c1c(-c2ccccc2)noc1C` [Example 91, N-(2-Methoxy-6-(1-methyl-1H-benzo[d] [1,2,3]triazol-6-yl)pyridin-3-yl)-5-methyl-3-phenylisoxazole-4-carboxamide], the Ki in assay [1] amounted to 10.1 nM. Moreover, in assay [2] (Conc 3 μM), the “α5-GABAAR Relative Efficacy” value was −0.45.
Regarding `COc1nc(-c2cnc(N3CCCC(CO)C3)nc2)ccc1NC(=O)c1c(-c2ccccc2)noc1C` (stereo not drawn) [Example 92, N-(6-(2-(3-(Hydroxymethyl)piperidin-1-yl)pyrimidin-5-yl)-2-methoxypyridin-3-yl)-5-methyl-3-phenylisoxazole-4-carboxamide], the Ki in assay [1] was 3 nM. In assay [2] (Conc 0.3 μM), the “α5-GABAAR Relative Efficacy” value is −0.66.
Consider `COc1nc(-c2cncnc2OC)ccc1NC(=O)c1c(-c2ccccc2)noc1C` [Example 93, N-(2-Methoxy-6-(4-methoxypyrimidin-5-yl)pyridin-3-yl)-5-methyl-3-phenyl-isoxazole-4-carboxamide], for which, in assay [1], the Ki worked out at 8.2 nM. Further, the “α5-GABAAR Relative Efficacy” value in assay [2] (Conc 1 μM) is given as −0.73.
Take `COc1nc(-c2cncs2)ccc1NC(=O)c1c(-c2ccccc2)noc1C` [Example 94, N-(2-Methoxy-6-(thiazol-5-yl)pyridin-3-yl)-5-methyl-3-phenylisoxazole-4-carboxamide]: the inhibition constant Ki in assay [1] amounted to 21.7 nM. In addition, the “α5-GABAAR Relative Efficacy” value in assay [2] (Conc 3 μM) is on record as −0.50.
As to `COc1nc(-c2cncc(C(=O)N(C)C)c2)ccc1NC(=O)c1c(-c2ccccc2)noc1C` [Example 95, N-(5′-(Dimethylcarbamoyl)-6-methoxy-[2,3′-bipyridin]-5-yl)-5-methyl-3-phenyl-isoxazole-4-carboxamide], the Ki in assay [1] was 1.4 nM. For the same molecule, in assay [2] (Conc 0.3 μM), the “α5-GABAAR Relative Efficacy” value was −0.66.
In the case of `COc1nc(-c2ccc3nncn3c2)ccc1NC(=O)c1c(-c2ccccc2)noc1C` [Example 96, N-(6-([1,2,4] Triazolo[4,3-a]pyridin-6-yl)-2-methoxypyridin-3-yl)-5-methyl-3-phenylisoxazole-4-carboxamide], the Ki in assay [1] came out at 1.9 nM. In assay [2] (Conc 0.3 μM), the “α5-GABAAR Relative Efficacy” value was −0.52.
As to `COc1nc(-c2cccc3c2CNC3=O)ccc1NC(=O)c1c(-c2ccccc2)noc1C` [Example 97, N-(2-Methoxy-6-(1-oxoisoindolin-4-yl)pyridin-3-yl)-5-methyl-3-phenylisoxazole-4-carboxamide], the Ki in assay [1] was 19.1 nM. Also, in assay [2] (Conc 3 μM), the “α5-GABAAR Relative Efficacy” value is reported as −0.67.
Take `COc1nc(-c2ccc(N3CC[C@@H](O)C3)nc2)ccc1NC(=O)c1c(-c2ccccc2)noc1C` [Example 99, (R)—N-(6′-(3-Hydroxypyrrolidin-1-yl)-6-methoxy-[2,3′-bipyridin]-5-yl)-5-methyl-3-phenylisoxazole-4-carboxamide]: the inhibitory constant (Ki) in assay [1] amounted to 6.7 nM. Also, the “α5-GABAAR Relative Efficacy” value in assay [2] (Conc 1 μM) is −0.70.
Take `COc1nc(-c2cnc3cnn(C)c3c2)ccc1NC(=O)c1c(-c2ccccc2)noc1C` [Example 100, N-(2-Methoxy-6-(1-methyl-1H-pyrazolo[4,3-b]pyridin-6-yl)pyridin-3-yl)-5-methyl-3-phenylisoxazole-4-carboxamide]: the Ki in assay [1] was 3 nM. Further, the “α5-GABAAR Relative Efficacy” value in assay [2] (Conc 0.3 μM) was −0.72.
As to `COc1nc(-c2cnnn2C)ccc1NC(=O)c1c(-c2ccccc2)noc1C` [Example 102, N-(2-Methoxy-6-(1-methyl-1H-1,2,3-triazol-5-yl)pyridin-3-yl)-5-methyl-3-phenyl-isoxazole-4-carboxamide], the Ki in assay [1] was 1.5 nM. Also, the “α5-GABAAR Relative Efficacy” value in assay [2] (Conc 0.3 μM) is −0.79.
`CNc1cc(-c2ccc(NC(=O)c3c(-c4ccccc4)noc3C)c(OC)n2)ccn1` [Example 103, N-(6-Methoxy-2′-(methylamino)-[2,4′-bipyridin]-5-yl)-5-methyl-3-phenylisoxazole-4-carboxamide]: in assay [1], the Ki was 6.6 nM. Moreover, the “α5-GABAAR Relative Efficacy” value in assay [2] (Conc 1 μM) is −0.78.
Consider `COc1nc(-c2ccnnc2)ccc1NC(=O)c1c(-c2ccccc2)noc1C` [Example 104, N-(2-Methoxy-6-(pyridazin-4-yl)pyridin-3-yl)-5-methyl-3-phenylisoxazole-4-carboxamide], for which, in assay [1], the Ki was 1.7 nM. In addition, in assay [2] (Conc 0.3 μM), the “α5-GABAAR Relative Efficacy” value is −0.68.
`COc1nc(-c2cnc3c(c2)OCO3)ccc1NC(=O)c1c(-c2ccccc2)noc1C` [Example 106, N-(6-([1,3] Dioxolo[4,5-b]pyridin-6-yl)-2-methoxypyridin-3-yl)-5-methyl-3-phenylisoxazole-4-carboxamide]: in assay [1], the Ki was determined as 11.4 nM. Further, the “α5-GABAAR Relative Efficacy” value in assay [2] (Conc 3 μM) was −0.40.
As for `COc1nc(-c2ccc(NC(C)=O)nc2)ccc1NC(=O)c1c(-c2ccccc2)noc1C` [Example 108, N-(6′-Acetamido-6-methoxy-[2,3′-bipyridin]-5-yl)-5-methyl-3-phenylisoxazole-4-carboxamide], the inhibition constant (Ki) in assay [1] is 3.1 nM. In addition, the “α5-GABAAR Relative Efficacy” value in assay [2] (Conc 1 μM) was −0.81.
For the molecule `COc1nc(-c2cnn(-c3ccncc3)c2)ccc1NC(=O)c1c(-c2ccccc2)noc1C` [Example 110, N-(2-Methoxy-6-(1-(pyridin-4-yl)-1H-pyrazol-4-yl)pyridin-3-yl)-5-methyl-3-phenylisoxazole-4-carboxamide], in assay [1], the Ki came to 29.1 nM. For the same molecule, the “α5-GABAAR Relative Efficacy” value in assay [2] (Conc 3 μM) is recorded as −0.53.
For `COc1nc(-c2ccc3c(c2)nc(C)n3C)ccc1NC(=O)c1c(-c2ccccc2)noc1C` [Example 111, N-(6-(1,2-Dimethyl-1H-benzo[d]imidazol-5-yl)-2-methoxypyridin-3-yl)-5-methyl-3-phenylisoxazole-4-carboxamide], in assay [1], the Ki was 13.1 nM. Besides, the “α5-GABAAR Relative Efficacy” value in assay [2] (Conc 3 μM) is −0.46.
The corresponding values for `COc1nc(-c2ccc3c(c2)COC(=O)N3)ccc1NC(=O)c1c(-c2ccccc2)noc1C` [Example 119, N-(2-Methoxy-6-(2-oxo-1,4-dihydro-2H-benzo[d] [1,3]oxazin-6-yl)pyridin-3-yl)-5-methyl-3-phenylisoxazole-4-carboxamide] are 13.8 nM and −0.63.
For the molecule `COc1nc(-c2cnoc2)cnc1NC(=O)c1c(-c2ccccc2)noc1C` [Example 120, N-(5-Isoxazol-4-yl-3-methoxy-pyrazin-2-yl)-5-methyl-3-phenyl-isoxazole-4-carboxamide], the Ki in assay [1] was found to be 4.6 nM. Further, the “α5-GABAAR Relative Efficacy” value in assay [2] (Conc 1 μM) is −0.73.
For the molecule `COc1nc(-c2ncc[nH]2)ccc1NC(=O)c1c(-c2ccccc2)noc1C` [Example 121, N-[6-(1H-Imidazol-2-yl)-2-methoxy-3-pyridyl]-5-methyl-3-phenyl-isoxazole-4-carboxamide], in assay [1], the Ki was found to be 2.1 nM. Besides, the “α5-GABAAR Relative Efficacy” value in assay [2] (Conc 0.3 μM) was −0.36.
Regarding `COc1nc(-c2ncco2)ccc1NC(=O)c1c(-c2ccccc2)noc1C` [Example 123, N-(2-Methoxy-6-oxazol-2-yl-3-pyridyl)-5-methyl-3-phenyl-isoxazole-4-carboxamide], in assay [1], the Ki worked out at 11.8 nM. Moreover, the “α5-GABAAR Relative Efficacy” value in assay [2] (Conc 3 μM) is recorded as −0.48.
Take `COc1nc(-c2cnoc2)ccc1NC(=O)c1c(C)nnn1-c1ccccc1` [Example 124, N-(6-(Isoxazol-4-yl)-2-methoxypyridin-3-yl)-4-methyl-1-phenyl-1H-1,2,3-triazole-5-carboxamide]: in assay [1], the inhibition constant (Ki) stood at 23.6 nM. In assay [2] (Conc 3 μM), the “α5-GABAAR Relative Efficacy” value was −1.40.
